In patent US11400019B2, “Sustained release drug delivery systems with reduced impurities and related methods” (DURECT CORPORATION, priority 2020, dated 2022):
Where a name gives a salt, the structure may show the parent alone. Read-outs that look alike come from different tables or passages of the source.

Tests used:
[1] = test system: patients undergoing elective arthroscopic shoulder surgery; assay: Example 13 trial: pain intensity and opioid rescue after arthroscopic shoulder surgery; type: in vivo, human
Method: Patients were screened 1 to 14 days before surgery at which time informed consent was obtained. Surgery was performed and the trial drug administered on Day 0. The trial was planned to be divided into two sequential cohorts, each with three treatment groups (a, b and c).
All patients received paracetamol (4 grams/day; 2 grams/day for body weight <66 kg for the first 72 hours) as background treatment. In case sufficient pain relief was not obtained, patients were allowed rescue medication in the form of morphine administered intravenously or orally, which consisted of oral morphine 10 mg at 1-hour intervals or, if unable to tolerate orally intake, intravenous (IV) morphine […] at 5-minute intervals. After 72 hours, subjects were allowed paracetamol and oral morphine on an as-needed basis. Patients recorded pain intensity as well as rescue medication in an electronic diary (eDiary).
Primary: The study had two primary endpoints. […] For the primary endpoints to be met, […] of PI on movement compared to placebo as well as superiority in total use of opioid analgesia needed to be shown. PI “on movement” reported on the NRS scale was summarized by treatment group and time, using descriptive statistics for continuous variables.
Time to first opioid rescue medication usage was defined as the duration between time of trial drug administration and the time of first opioid use

[2] = Example 13 trial: total and free bupivacaine plasma pharmacokinetics; details: human, in vivo
Method: Additionally, alpha 1 acid glycoprotein (AAG) plasma concentrations were measured in these two groups for correlation with free bupivacaine concentrations.
Using non-compartmental methods the following PK parameters were calculated from the plasma concentrations of each compound: area under the plasma concentration vs. time curve until the last measured concentration (AUCt), area under the plasma concentration vs. time curve extrapolated until infinity (AUCinf), the maximum concentration (Cmax), the time of its occurrence (tmax) and the apparent terminal elimination half-life (t1/2). […] The average […] of bupivacaine was approximately […]; free bupivacaine plasma concentrations generally paralleled those of total bupivacaine. There was a large interindividual variability of Cmax of both total and free bupivacaine. […] Note: Table 13.5 presents Geometric mean, ±68th percentile for Cmax rather than absolute min, max.

[3] = test system: patients undergoing elective arthroscopic shoulder surgery; assay: Example 13 trial: safety; type: in vivo, human; details: safety population
Description: Pharmacokinetic/pharmacodynamic (PK/PD) relationships were to be assessed as part of central nervous system (CNS) toxicity monitoring and cardiac monitoring. For patients not selected for PK-profiling, if a cardiac or CNS event occurred that met the criteria for a serious adverse event (SAE) or a severe non-SAE, a blood sample for PK analysis was to be taken as close to the event as possible.
The incidence of adverse events (AEs); the incidence of bupivacaine-related CNS side effects; clinical laboratory tests; vital signs; 12-lead ECGs; and physical examinations.
Evaluation by the investigator of wound healing and tissue conditions at the surgical wound on Days 7 and 14, and at the 6-month follow-up visit. An MRI of the shoulder as well as a functionality assessment of the shoulder using the Constant-Murley score were to be performed at the 6-month follow-up visit.

[4] = test system: subjects undergoing elective outpatient laparoscopic cholecystectomy; assay: Example 16 trial: pain intensity on movement after laparoscopic cholecystectomy; type: in vivo, human; details: Part 2 (N = 148 per group)
Method: Part 1: Pain intensity on movement measured at scheduled time points from 0 to 72 hours following test drug administration, adjusted for prior rescue medication use and analyzed by a mixed effect ANOVA model of repeated measures (MMRM).
Part 2: Pain intensity on movement measured at scheduled time points from 0 to 48 hours following test drug administration, adjusted for prior rescue medication use and analyzed by a mixed effect ANOVA model of repeated measures (MMRM).

[5] = test system: subjects undergoing elective outpatient laparoscopic cholecystectomy; assay: Example 16 trial: safety; type: in vivo
Description: The trial included: 1) a randomized, parallel-group, double-blind, placebo-controlled study (Part 1) and a randomized, parallel-group, double-blind, bupivacaine HCl active-controlled study (Part 2). The trial evaluated the efficacy and safety of Formulation A (bupivacaine, benzyl alcohol, sucrose acetate isobutyrate) as a delivery system in subjects undergoing elective outpatient laparoscopic cholecystectomy.
There were no fatalities in this trial. […]

[6] = test system: patients undergoing laparotomy, laparoscopic cholecystectomy or laparoscopically-assisted colectomy; assay: Example 17 phase 3 trial: pain intensity and opioid use in general surgical procedures; type: in vivo, human; details: for Total Morphine-equivalent Opioid Medication Use, MEDD 0-72 hours, Median (Q1, Q3) / Repeated Measures Pain Intensity on Movement, All Timepoints 0-72 hr, LS Mean (SE): ITT; for Pain Intensity on Movement AUC 0-24 hours, LS Mean (SE) / Pain Intensity on Movement AUC 0-48 hours, LS Mean (SE) / Pain Intensity on Movement AUC 0-72 hours, LS Mean (SE) / Pain Intensity on Movement AUC 24-48 hours, LS Mean (SE) / Pain Intensity on Movement AUC 48-72 hours, LS Mean (SE): Log Pad and Opioid Pain Scores; for Repeated Measures Pain Intensity on Movement, All Timepoints 0-72 hr, LS Mean (SE): LogPad Scores Only
[7] = Example 17 trial: plasma total bupivacaine pharmacokinetics; type: in vivo; details: human
Method: Plasma PK samples were analyzed for determination of total bupivacaine concentration only and none of the samples were analyzed for determination of free drug concentration.

[8] = LOCF, ITT population, hours post-surgery
[9] = Cohort 2 (Laparoscopic Cholecystectomy)

Structure (SMILES): CCCCN1CCCCC1C(=O)Nc1c(C)cccc1C (centres unmarked) [bupivacaine HCl, bupivacaine hydrochloride]
- Total IV morphine equivalent dose of opioid rescue medication, Median ([1]; 0-72 hours after surgery, ITT population): 8.0 mg
- median cumulative IV morphine-equivalent dose of opioids 0 to 72 hours ([1]; Formulation A 5 mL (660 mg) or bupivacaine HCl 20 mL (50 mg) subacromial, ITT): 8.0 mg
- Pain intensity at rest normalized AUC 1-72 hours, Mean (SD) ([1]; ITT population): 2.33 (1.76)
- Time to first use of opioid rescue medication, Median (95% CI) ([1]; ITT population, Kaplan-Meier estimates): 1.4 (1.0, 4.1) hours
- Pain intensity on movement, mean AUC (1-24) [1, 8]: 5.82
- Pain intensity on movement, mean AUC (1-48) [1, 8]: 5.56
- Pain intensity on movement, mean AUC (1-72) [1, 8]: 5.16
- Pain intensity on movement, mean AUC (24-48) [1, 8]: 5.31
- Pain intensity on movement, mean AUC (48-72) [1, 8]: 4.38
- median time to first use of opioid rescue medication ([1]; single subacromial dose, ITT): 1.4 h
- percentage of subjects opioid free during 72 hours after surgery ([1]; single subacromial dose, ITT): 27.6%
- Tmax [2]: 1.03 h
- t1/2, mean [2]: 6.65 h
- tmax median [2]: 1.03 h
- half-life ([2]; t1/2, mean): 356 min
- All TEAEs, % of patients [3]: 37.9%
- All TEAEs, n (patients with at least one event) [3]: 11
- TEAE Alanine aminotransferase increased, % of patients [3]: 0.0%
- TEAE Cardiac disorders, % of patients [3]: 10.3%
- TEAE Gastrointestinal disorders, % of patients [3]: 3.4%
- TEAE General disorders and administration site conditions, % of patients [3]: 0.0%
- TEAE Headache, % of patients [3]: 3.4%
- TEAE Injury, poisoning and procedural complications, % of patients [3]: 0.0%
- TEAE Investigations, % of patients [3]: 6.9%
- TEAE Musculoskeletal and connective tissue disorders, % of patients [3]: 6.9%
- TEAE Musculoskeletal pain, % of patients [3]: 6.9%
- TEAE Nausea, % of patients [3]: 3.4%
- TEAE Nervous system disorders, % of patients [3]: 13.8%
- TEAE Respiratory, thoracic and mediastinal disorders, % of patients [3]: 6.9%
- TEAE Skin and subcutaneous tissue disorders, % of patients [3]: 6.9%
- Pain intensity on movement 0 to 48 hours, Mean [4]: 5.87
- Fatal TEAE, number of subjects ([5]; Part 2 (N = 148 per group)): 0
- Fatal TEAE, percent of subjects ([5]; Part 2 (N = 148 per group)): (0.0%)
- At Least One LogPad-Solicited TEAE, number of subjects ([5]; human, in vivo): 132
- At Least One LogPad-Solicited TEAE, percent of subjects ([5]; human, in vivo): (89.2%)
- At Least One Serious TEAE, number of subjects ([5]; human, in vivo): 3
- At Least One Serious TEAE, percent of subjects ([5]; human, in vivo): (2.0%)
- At Least One Serious and Related TEAE, number of subjects ([5]; human, in vivo): 0
- At Least One Serious and Related TEAE, percent of subjects ([5]; human, in vivo): (0.0%)
- At Least One Severe and Related TEAE, number of subjects ([5]; human, in vivo): 0
- At Least One Severe and Related TEAE, percent of subjects ([5]; human, in vivo): (0.0%)
- At Least One Spontaneously-reported TEAE, number of subjects ([5]; human, in vivo): 138
- At Least One Spontaneously-reported TEAE, percent of subjects ([5]; human, in vivo): (93.2%)
- At Least One TEAE Leading to Study Discontinuation, number of subjects ([5]; human, in vivo): 1
- At Least One TEAE Leading to Study Discontinuation, percent of subjects ([5]; human, in vivo): (0.7%)
- At Least One TEAE, number of subjects ([5]; human, in vivo): 146
- At Least One TEAE, percent of subjects ([5]; human, in vivo): (98.6%)
- TEAE Maximum Relationship to Study Drug: Not Related, number of subjects ([5]; human, in vivo): 42
- TEAE Maximum Relationship to Study Drug: Not Related, percent of subjects ([5]; human, in vivo): (28.4%)
- TEAE Maximum Relationship to Study Drug: Related, number of subjects ([5]; human, in vivo): 104
- TEAE Maximum Relationship to Study Drug: Related, percent of subjects ([5]; human, in vivo): (70.3%)
- TEAE Maximum Severity: Mild, number of subjects ([5]; human, in vivo): 92
- TEAE Maximum Severity: Mild, percent of subjects ([5]; human, in vivo): (62.2%)
- TEAE Maximum Severity: Moderate, number of subjects ([5]; human, in vivo): 49
- TEAE Maximum Severity: Moderate, percent of subjects ([5]; human, in vivo): (33.1%)
- TEAE Maximum Severity: Severe, number of subjects ([5]; human, in vivo): 5
- TEAE Maximum Severity: Severe, percent of subjects ([5]; human, in vivo): (3.4%)
- treated subjects with treatment-emergent serious adverse events ([5]; human, in vivo): 3 subjects
- Total Morphine-equivalent Opioid Medication Use, MEDD 0-72 hours, Median (Q1, Q3) ([6]; Cohort 1 (Laparotomy)): 63.0 (34.0, 152.0) mg
- Pain Intensity on Movement AUC 0-24 hours, LS Mean (SE) ([6]; Cohort 1 (Laparotomy)): 6.3 (0.48)
- Pain Intensity on Movement AUC 0-48 hours, LS Mean (SE) ([6]; Cohort 1 (Laparotomy)): 6.0 (0.49)
- Pain Intensity on Movement AUC 0-72 hours, LS Mean (SE) ([6]; Cohort 1 (Laparotomy)): 5.8 (0.51)
- Pain Intensity on Movement AUC 24-48 hours, LS Mean (SE) ([6]; Cohort 1 (Laparotomy)): 5.7 (0.56)
- Pain Intensity on Movement AUC 48-72 hours, LS Mean (SE) ([6]; Cohort 1 (Laparotomy)): 5.3 (0.60)
- Repeated Measures Pain Intensity on Movement, All Timepoints 0-72 hr, LS Mean (SE) ([6]; Cohort 1 (Laparotomy)): 5.9 (0.35)
- Total Morphine-equivalent Opioid Medication Use, MEDD 0-72 hours, Median (Q1, Q3) [6, 9]: 22.5 (12.5, 34.5) mg
- Pain Intensity on Movement AUC 0-24 hours, LS Mean (SE) [6, 9]: 4.8 (0.47)
- Pain Intensity on Movement AUC 0-48 hours, LS Mean (SE) [6, 9]: 4.4 (0.45)
- Pain Intensity on Movement AUC 0-72 hours, LS Mean (SE) [6, 9]: 3.9 (0.45)
- Pain Intensity on Movement AUC 24-48 hours, LS Mean (SE) [6, 9]: 4.0 (0.22)
- Pain Intensity on Movement AUC 48-72 hours, LS Mean (SE) [6, 9]: 2.8 (0.52)
- Repeated Measures Pain Intensity on Movement, All Timepoints 0-72 hr, LS Mean (SE) [6, 9]: 3.6 (0.32)
- Cmax ([7]; Cohort 1): 251 ng/mL
- AUC(0-t) ([7]; Cohort 1, read-out: AUC(0-72), mean): 8460 ng·h/mL
- AUC(0-t) ([7]; Cohort 1, read-out: AUC(0-last), mean): 7780 ng·h/mL
- Tmax ([7]; Cohort 1, read-out: Tmax, median): 16 h
- Cmax ([7]; Cohort 2): 371 ng/mL
- AUC(0-t) ([7]; Cohort 2, read-out: AUC(0-72), mean): 6770 ng·h/mL
- AUC(0-t) ([7]; Cohort 2, read-out: AUC(0-last), mean): 6620 ng·h/mL
- Tmax ([7]; Cohort 2, read-out: Tmax, median): 1 h
